Experimental data: ChEMBL document CHEMBL4425144, “Discovery and Structural Optimization of N5-Substituted 6,7-Dioxo-6,7-dihydropteridines as Potent and Selective Epidermal Growth Factor Receptor (EGFR) Inhibitors against L858R/T790M Resistance Mutation” (J Med Chem, 2016)
The source made the active and inactive calls. The calls are words filed in the database; no cut-off is given here.

Legend:
[1] = Apparent volume of distribution in ICR mouse at 1 mg/kg, iv by LC-MS/MS method; type: ADME, organism-based; conditions: in vivo, read-out: Vz
[2] = AUC (0 to infinity) in ICR mouse at 10 mg/kg, po by LC-MS/MS method; type: ADME, organism-based; set-up: dose 10 mg/kg, time infinity, route oral; conditions: in vivo
[3] = biological target: Epidermal growth factor receptor (Homo sapiens, UniProt P00533); experiment: Inhibition of wild type EGFR kinase domain (unknown origin) expressed using baculovirus expression system incubated for 1 hr using Poly(Glu,Tyr) 4:1 by ELISA method
[4] = Cmax in ICR mouse at 10 mg/kg, po by LC-MS/MS method; type: ADME, organism-based; set-up: dose 10 mg/kg, route oral; conditions: in vivo
[5] = biological target: Receptor tyrosine-protein kinase erbB-4 (Homo sapiens) (UniProt Q15303); experiment: Inhibition of human ERBB4 expressed in bacterial system assessed as remaining enzyme activity at 1000 nM relative to untreated control
[6] = biological target: T1, Mitogen-activated protein kinase kinase kinase 6 (Homo sapiens) (UniProt O95382); experiment: Inhibition of human ASK2 expressed in mammalian system assessed as remaining enzyme activity at 1000 nM relative to untreated control
T1 sequence (whole entry): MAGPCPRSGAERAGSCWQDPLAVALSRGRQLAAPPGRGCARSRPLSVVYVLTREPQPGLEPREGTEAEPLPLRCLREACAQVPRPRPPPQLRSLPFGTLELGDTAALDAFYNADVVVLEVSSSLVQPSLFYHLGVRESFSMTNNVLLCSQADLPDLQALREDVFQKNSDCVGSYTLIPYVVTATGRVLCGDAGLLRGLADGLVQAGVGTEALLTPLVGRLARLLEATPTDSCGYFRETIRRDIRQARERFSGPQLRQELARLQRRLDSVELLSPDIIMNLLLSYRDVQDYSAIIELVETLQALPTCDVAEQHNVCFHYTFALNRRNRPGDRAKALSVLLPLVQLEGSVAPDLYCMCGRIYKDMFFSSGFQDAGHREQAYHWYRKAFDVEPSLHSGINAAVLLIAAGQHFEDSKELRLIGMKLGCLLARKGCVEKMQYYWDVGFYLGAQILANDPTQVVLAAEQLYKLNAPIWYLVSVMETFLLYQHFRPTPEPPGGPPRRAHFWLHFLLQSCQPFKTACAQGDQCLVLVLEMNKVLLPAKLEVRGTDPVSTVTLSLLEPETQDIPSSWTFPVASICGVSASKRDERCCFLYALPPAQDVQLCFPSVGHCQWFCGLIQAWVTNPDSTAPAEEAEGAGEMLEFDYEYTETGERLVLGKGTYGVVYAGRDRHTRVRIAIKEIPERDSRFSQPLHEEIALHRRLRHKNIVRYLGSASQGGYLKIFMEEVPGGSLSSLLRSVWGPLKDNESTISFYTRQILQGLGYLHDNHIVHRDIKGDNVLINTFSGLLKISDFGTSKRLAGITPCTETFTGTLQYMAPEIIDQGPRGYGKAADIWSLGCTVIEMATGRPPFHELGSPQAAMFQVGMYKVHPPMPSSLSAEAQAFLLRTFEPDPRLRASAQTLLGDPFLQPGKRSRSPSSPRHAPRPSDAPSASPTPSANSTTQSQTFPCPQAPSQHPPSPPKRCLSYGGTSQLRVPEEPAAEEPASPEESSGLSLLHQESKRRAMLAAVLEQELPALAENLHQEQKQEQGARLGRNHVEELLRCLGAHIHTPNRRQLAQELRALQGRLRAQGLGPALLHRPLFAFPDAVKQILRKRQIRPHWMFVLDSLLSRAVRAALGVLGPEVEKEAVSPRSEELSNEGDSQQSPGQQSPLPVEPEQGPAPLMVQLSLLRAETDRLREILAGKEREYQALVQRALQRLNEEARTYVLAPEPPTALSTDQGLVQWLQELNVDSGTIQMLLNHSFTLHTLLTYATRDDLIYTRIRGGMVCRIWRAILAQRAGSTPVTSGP

A-431 = experiment: Antiproliferative activity against human A431 cells incubated for 72 hrs by SRB assay; type: functional, cell-based; conditions: A-431, 72 h
[7] = AUC (0 to t) in ICR mouse at 10 mg/kg, po by LC-MS/MS method; type: ADME, organism-based; conditions: in vivo
[8] = Toxicity in human NCI-H1975 cells xenografted BALB/c mouse assessed as body weight loss at 50 mg/kg, po qd for 14 consecutive days; type: organism-based; conditions: in vivo
[9] = biological target: Receptor tyrosine-protein kinase erbB-2 (Homo sapiens) (UniProt P04626); experiment: Inhibition of human ERBB2 expressed in mammalian system assessed as remaining enzyme activity at 1000 nM relative to untreated control
NCI-H1975 [10] = conditions: Homo sapiens, at 50 mg/kg
Description: Antitumor activity against human NCI-H1975 cells xenografted in BALB/c mouse assessed as inhibition of tumor cell proliferation by measuring Ki-67 expression at 50 mg/kg, po qd for 14 consecutive days by immunohistochemistry

[11] = Toxicity in human NCI-H1975 cells xenografted BALB/c mouse assessed as mouse mortality at 50 mg/kg, po qd for 14 consecutive days; type: organism-based; conditions: in vivo
[12] = Tmax in ICR mouse at 10 mg/kg, po by LC-MS/MS method; type: ADME, organism-based; conditions: in vivo
[13] = Cmax in ICR mouse at 1 mg/kg, iv by LC-MS/MS method; type: ADME, organism-based; set-up: dose 1 mg/kg, route intravenous; conditions: in vivo
NCI-H1975 [14] = experiment: Antitumor activity against human NCI-H1975 cells xenografted in BALB/c mouse assessed as inhibition of tumor growth at 50 mg/kg, po qd for 14 consecutive days; type: functional; conditions: read-out: TGI

Chain of Epidermal growth factor receptor (P00533 whole entry, the tested form may be a part): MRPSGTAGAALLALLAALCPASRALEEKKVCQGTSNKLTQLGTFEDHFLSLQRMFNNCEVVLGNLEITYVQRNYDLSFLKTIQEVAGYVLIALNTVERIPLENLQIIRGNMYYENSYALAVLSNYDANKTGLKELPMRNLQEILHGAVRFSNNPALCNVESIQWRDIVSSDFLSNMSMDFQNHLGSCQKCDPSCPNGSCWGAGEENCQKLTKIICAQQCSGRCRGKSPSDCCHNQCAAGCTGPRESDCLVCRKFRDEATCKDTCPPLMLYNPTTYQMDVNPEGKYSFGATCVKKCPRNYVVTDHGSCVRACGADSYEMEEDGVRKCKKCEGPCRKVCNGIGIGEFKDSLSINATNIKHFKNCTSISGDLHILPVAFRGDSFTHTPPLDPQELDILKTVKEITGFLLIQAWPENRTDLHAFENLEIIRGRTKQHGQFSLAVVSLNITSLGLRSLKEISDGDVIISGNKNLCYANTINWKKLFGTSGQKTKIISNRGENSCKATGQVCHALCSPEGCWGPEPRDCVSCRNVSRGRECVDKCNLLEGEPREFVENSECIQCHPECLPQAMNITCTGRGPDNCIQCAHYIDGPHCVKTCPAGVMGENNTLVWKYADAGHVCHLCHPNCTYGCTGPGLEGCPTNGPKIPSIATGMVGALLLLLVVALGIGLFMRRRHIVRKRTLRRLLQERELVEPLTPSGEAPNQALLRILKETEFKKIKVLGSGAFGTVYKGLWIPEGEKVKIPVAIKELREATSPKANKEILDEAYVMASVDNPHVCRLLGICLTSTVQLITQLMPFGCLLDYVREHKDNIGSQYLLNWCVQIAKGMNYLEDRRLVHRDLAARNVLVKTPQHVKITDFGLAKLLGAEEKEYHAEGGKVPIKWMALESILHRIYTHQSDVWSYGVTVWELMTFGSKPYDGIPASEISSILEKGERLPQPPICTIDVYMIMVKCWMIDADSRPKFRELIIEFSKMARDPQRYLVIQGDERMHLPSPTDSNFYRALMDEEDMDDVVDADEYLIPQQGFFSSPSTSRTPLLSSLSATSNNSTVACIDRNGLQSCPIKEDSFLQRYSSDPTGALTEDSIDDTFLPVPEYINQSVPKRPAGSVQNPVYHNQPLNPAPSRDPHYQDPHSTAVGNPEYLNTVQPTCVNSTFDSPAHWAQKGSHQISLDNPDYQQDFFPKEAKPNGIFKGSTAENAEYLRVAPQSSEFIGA
Chain of Receptor tyrosine-protein kinase erbB-2 (Homo sapiens) (P04626 whole entry): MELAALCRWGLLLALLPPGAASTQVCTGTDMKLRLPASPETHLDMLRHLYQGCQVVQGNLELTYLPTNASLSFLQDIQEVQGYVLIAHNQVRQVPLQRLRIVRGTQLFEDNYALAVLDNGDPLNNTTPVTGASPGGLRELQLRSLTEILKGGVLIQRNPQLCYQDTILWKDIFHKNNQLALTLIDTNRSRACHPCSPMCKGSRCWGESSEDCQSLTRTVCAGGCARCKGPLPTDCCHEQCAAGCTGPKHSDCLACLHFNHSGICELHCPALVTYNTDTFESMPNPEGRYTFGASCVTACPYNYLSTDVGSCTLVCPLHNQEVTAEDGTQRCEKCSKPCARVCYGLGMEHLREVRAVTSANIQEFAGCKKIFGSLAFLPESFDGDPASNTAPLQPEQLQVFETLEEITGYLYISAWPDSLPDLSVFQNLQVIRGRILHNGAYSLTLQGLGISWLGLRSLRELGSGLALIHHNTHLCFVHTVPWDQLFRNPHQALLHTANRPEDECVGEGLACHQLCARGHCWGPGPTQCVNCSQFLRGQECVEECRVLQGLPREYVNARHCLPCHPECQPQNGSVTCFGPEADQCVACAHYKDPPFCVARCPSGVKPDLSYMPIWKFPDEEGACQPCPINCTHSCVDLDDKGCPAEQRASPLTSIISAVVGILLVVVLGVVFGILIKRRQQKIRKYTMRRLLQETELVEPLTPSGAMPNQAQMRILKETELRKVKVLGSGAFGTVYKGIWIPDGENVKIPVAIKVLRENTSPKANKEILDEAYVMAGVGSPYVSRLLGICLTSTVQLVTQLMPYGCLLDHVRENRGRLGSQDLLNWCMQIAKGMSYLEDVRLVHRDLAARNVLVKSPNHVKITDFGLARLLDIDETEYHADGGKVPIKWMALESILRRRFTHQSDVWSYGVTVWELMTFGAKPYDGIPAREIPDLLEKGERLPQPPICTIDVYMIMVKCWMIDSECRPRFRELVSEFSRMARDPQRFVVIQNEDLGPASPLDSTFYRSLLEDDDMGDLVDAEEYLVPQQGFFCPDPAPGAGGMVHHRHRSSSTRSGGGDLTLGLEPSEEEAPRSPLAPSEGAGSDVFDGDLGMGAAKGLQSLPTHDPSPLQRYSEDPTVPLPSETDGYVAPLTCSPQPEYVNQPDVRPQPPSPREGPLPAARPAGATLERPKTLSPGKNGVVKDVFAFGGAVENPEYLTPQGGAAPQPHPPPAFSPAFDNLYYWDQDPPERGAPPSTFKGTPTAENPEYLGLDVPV
Chain of Receptor tyrosine-protein kinase erbB-4 (Homo sapiens) (Q15303 whole entry): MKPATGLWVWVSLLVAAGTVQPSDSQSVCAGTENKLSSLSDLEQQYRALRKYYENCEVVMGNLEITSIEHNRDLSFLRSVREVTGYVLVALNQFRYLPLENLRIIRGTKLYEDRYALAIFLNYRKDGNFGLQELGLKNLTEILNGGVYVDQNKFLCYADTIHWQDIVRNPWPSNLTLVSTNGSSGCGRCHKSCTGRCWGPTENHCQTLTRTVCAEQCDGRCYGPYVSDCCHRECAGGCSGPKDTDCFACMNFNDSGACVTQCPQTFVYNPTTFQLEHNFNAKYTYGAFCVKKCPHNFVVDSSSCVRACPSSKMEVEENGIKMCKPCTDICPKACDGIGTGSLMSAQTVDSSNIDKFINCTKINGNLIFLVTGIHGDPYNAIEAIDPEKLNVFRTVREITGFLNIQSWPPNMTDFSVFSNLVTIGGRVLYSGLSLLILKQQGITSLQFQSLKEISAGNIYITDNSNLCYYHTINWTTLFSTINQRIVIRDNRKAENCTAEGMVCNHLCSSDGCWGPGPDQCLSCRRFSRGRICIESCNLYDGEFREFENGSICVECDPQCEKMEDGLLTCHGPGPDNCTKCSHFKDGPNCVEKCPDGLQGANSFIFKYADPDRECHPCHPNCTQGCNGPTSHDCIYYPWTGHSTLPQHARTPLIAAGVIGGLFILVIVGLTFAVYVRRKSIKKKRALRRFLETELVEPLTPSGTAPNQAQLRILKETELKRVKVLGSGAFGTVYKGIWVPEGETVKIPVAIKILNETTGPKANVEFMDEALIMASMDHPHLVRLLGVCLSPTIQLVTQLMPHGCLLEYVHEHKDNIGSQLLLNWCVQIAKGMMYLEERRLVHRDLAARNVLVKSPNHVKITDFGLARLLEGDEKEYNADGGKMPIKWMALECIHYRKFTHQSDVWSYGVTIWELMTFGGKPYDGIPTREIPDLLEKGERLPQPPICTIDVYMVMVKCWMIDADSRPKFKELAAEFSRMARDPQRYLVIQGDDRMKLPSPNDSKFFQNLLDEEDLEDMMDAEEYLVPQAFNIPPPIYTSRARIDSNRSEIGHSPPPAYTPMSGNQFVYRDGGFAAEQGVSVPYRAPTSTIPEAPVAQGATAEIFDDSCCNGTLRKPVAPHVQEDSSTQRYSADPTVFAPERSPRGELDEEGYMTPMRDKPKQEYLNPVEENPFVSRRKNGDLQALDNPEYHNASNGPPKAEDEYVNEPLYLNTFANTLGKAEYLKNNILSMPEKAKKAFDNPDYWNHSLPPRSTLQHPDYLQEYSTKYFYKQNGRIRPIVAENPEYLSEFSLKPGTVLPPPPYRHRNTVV

Molecule `C=CC(=O)Nc1cccc(-n2c(=O)c(=O)n(C(C)C)c3cnc(Nc4ccc(N5CCN(C)CC5)cc4OC)nc32)c1` has a Vd [1] of 8.01 L/kg, an AUC(0-inf) [2] of 680 ng·h/mL and an IC50 [3] of 0.002 µM. The Cmax [4] was 136 ng/mL, the Activity [5] was < 1% and the Activity [6] was < 1%. For the same molecule, the IC50 (A-431) was 7.77 µM, the AUC(0-t) [7] was 673 ng·h/mL and the Activity [8] was “Non-Toxic”. The Activity [9] was < 1%, the inhibition (NCI-H1975 [10]) was “Active” and the Activity [11] was “Non-Toxic”. It also gave a Tmax [12] of 2 h, a Cmax [13] of 258 ng/mL and an inhibition in vivo at 50 mg/kg (NCI-H1975 [14]) of 52%.
